Values of other authors as cited in patent publication US20190359769A1, “PHARMACEUTICAL AGENT FOR IRON CHELATING” (Johannes Gutenberg-Universität Mainz, priority 2017, published 2019).

How the values were obtained:
[1] = in vivo
[2] = Fe^3+ complex
[3] = one study
[4] = studies on rats and humans

CC(=O)N(O)CCCCCNC(=O)CCC(=O)N(O)CCCCCNC(=O)CCC(=O)N(O)CCCCCN [DFO, Deferoxamine]
plasma half-life [1]: about 5 minutes | logarithmic stability constant of iron complexes [2]: 30

Cc1c(O)c(=O)ccn1C [DFP, Deferiprone]
proportion of the DFP dose administered found in the urine in the form of inactive 3-O-glucoronide conjugates [3]: 85%

O=C(O)c1ccc(-n2nc(-c3ccccc3O)nc2-c2ccccc2O)cc1 [DFX, Deferasirox]
physiological half-life [4]: 8-16 h
